Results as given in ChEMBL document CHEMBL1649540, “The novel CXCR4 antagonist KRH-3955 is an orally bioavailable and extremely potent inhibitor of human immunodeficiency virus type 1 infection: comparative studies with AMD3100” (Antimicrob Agents Chemother, 2009).
The source made the active and inactive calls. The rule behind the calls is not given here.

Columns and labels:
[1] = biological target: T1, C-X-C chemokine receptor type 4 (Homo sapiens, UniProt P61073); assay: Inhibition of Mab A145 binding to CXCR4 expressed in human MOLT4 cells at 0.1 to 1000 nM by FACS analysis; type: cell-based; conditions: MOLT-4
T1 sequence (P61073 whole entry): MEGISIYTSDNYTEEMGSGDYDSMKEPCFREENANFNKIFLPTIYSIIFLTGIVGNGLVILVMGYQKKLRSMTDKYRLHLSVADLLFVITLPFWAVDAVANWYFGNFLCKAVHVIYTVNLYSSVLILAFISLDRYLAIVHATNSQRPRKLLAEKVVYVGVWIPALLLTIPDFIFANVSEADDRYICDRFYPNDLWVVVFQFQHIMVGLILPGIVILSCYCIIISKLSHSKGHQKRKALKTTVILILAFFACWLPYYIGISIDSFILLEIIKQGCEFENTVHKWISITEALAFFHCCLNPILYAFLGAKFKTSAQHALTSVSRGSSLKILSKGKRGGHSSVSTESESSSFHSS

[2] = test system: Human immunodeficiency virus 1; assay: Antiviral activity against HIV1 89.6 infected in human PBMC assessed as inhibition of viral p24 antigen production after 7 to 10 days by ELISA; type: functional, organism-based; conditions: Human immunodeficiency virus 1, 89.6
[3] = test system: Human immunodeficiency virus 1; assay: Antiviral activity against HIV1 R5 infected in human PBMC assessed as inhibition of viral p24 antigen production after 7 to 10 days by ELISA; type: functional, organism-based; conditions: Human immunodeficiency virus 1, R5
[4] = test system: Human immunodeficiency virus 1; assay: Antiviral activity against HIV1 A018H infected in human PBMC assessed as inhibition of viral p24 antigen production after 7 to 10 days by ELISA; type: functional, organism-based; conditions: Human immunodeficiency virus 1, A018H
[5] = test system: Human immunodeficiency virus 1; assay: Antiviral activity against HIV1 A018G infected in human PBMC assessed as inhibition of viral p24 antigen production after 7 to 10 days by ELISA; type: functional, organism-based; conditions: Human immunodeficiency virus 1, A018G
[6] = test system: Human immunodeficiency virus 1; assay: Antiviral activity against HIV1 HXB2 infected in HEK293 cells assessed as inhibition of viral replication after 2 days; type: functional, organism-based; conditions: Human immunodeficiency virus 1, HXB2, HEK293, 48 h
[7] = test system: Human immunodeficiency virus 1; assay: Antiviral activity against NRTI-resistant HIV1 HXB2 infected in HEK293 cells assessed as inhibition of viral replication after 2 days; type: functional, organism-based; conditions: Human immunodeficiency virus 1, HXB2, HEK293, 48 h
[8] = test system: Human immunodeficiency virus 1; assay: Antiviral activity against NNRTI-resistant HIV1 HXB2 infected in HEK293 cells assessed as inhibition of viral replication after 2 days; type: functional, organism-based; conditions: Human immunodeficiency virus 1, HXB2, HEK293, 48 h
[9] = test system: Human immunodeficiency virus 1; assay: Antiviral activity against T20-resistant HIV1 NL4-3 infected in HEK293 cells assessed as inhibition of viral replication after 2 days; type: functional, organism-based; conditions: Human immunodeficiency virus 1, NL4-3, HEK293, 48 h
[10] = biological target: C-C chemokine receptor type 1 (Homo sapiens) (UniProt P32246); assay: Displacement of [125I]RANTES form CCR1 expressed in CHO cells by scintillation counting; type: cell-based
Sequence of C-C chemokine receptor type 1 (Homo sapiens) (P32246 whole entry): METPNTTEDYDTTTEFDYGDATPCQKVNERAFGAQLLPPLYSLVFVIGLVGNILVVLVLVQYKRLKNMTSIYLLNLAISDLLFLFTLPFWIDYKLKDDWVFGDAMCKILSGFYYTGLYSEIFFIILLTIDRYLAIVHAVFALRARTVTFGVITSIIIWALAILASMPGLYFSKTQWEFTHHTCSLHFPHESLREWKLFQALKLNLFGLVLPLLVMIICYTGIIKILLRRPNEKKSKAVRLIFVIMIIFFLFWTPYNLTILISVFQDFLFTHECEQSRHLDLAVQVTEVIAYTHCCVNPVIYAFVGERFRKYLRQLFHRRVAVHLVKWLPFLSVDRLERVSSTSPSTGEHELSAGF

[11] = biological target: C-C chemokine receptor type 2 (Homo sapiens) (UniProt P41597); assay: Displacement of [125I]MCP1 form CCR2b expressed in CHO cells by scintillation counting; type: cell-based
Sequence of C-C chemokine receptor type 2 (Homo sapiens) (P41597 whole entry, looked up): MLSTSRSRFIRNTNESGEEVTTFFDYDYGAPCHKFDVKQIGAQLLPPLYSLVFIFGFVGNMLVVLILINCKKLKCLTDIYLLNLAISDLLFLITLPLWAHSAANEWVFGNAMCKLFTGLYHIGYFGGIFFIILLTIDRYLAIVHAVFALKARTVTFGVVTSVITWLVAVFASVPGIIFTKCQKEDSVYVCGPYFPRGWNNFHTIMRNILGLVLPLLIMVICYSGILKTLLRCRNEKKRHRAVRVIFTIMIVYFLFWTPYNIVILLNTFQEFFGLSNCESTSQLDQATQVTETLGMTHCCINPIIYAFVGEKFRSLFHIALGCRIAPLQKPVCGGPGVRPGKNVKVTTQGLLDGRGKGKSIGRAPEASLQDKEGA

[12] = biological target: C-C chemokine receptor type 4 (Homo sapiens) (UniProt P51679); assay: Displacement of [125I]TARC form CCR4 expressed in CHO cells by scintillation counting; type: cell-based
Sequence of C-C chemokine receptor type 4 (Homo sapiens) (P51679 whole entry): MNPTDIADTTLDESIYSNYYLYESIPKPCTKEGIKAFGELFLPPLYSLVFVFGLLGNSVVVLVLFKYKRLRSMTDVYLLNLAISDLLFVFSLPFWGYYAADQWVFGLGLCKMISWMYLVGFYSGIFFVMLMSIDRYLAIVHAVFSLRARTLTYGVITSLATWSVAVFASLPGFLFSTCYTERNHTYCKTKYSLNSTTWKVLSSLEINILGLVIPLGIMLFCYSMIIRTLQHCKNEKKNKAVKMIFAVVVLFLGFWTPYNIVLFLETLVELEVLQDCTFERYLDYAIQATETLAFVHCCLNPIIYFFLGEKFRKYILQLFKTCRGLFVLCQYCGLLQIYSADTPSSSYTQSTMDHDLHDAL

[13] = biological target: T1, C-X-C chemokine receptor type 4; assay: Inhibition of Mab 12G5 binding to CXCR4 expressed in human MOLT4 cells by FACS analysis; type: cell-based; conditions: MOLT-4
[14] = biological target: T1, C-X-C chemokine receptor type 4; assay: Inhibition of Mab 44717 binding to CXCR4 expressed in human MOLT4 cells by FACS analysis; type: cell-based; conditions: MOLT-4
[15] = biological target: T1, C-X-C chemokine receptor type 4; assay: Inhibition of Mab 12G5 binding to CXCR4 expressed in human MOLT4 cells at 10 nM by FACS analysis; type: cell-based; conditions: MOLT-4
[16] = Half life in Sprague-Dawley rat at 10 mg/kg, iv administered as single dose; type: ADME, organism-based; set-up: dose 10 mg/kg, route intravenous; conditions: in vivo
[17] = Volume of distribution at steady state in Sprague-Dawley rat at 10 mg/kg, iv administered as single dose; type: ADME, organism-based; set-up: dose 10 mg/kg, route intravenous; conditions: in vivo
[18] = AUC (0 to 336 hrs) in Sprague-Dawley rat at 10 mg/kg, po administered as single dose; type: ADME, organism-based; set-up: time < 336 hr, dose 10 mg/kg, route oral; conditions: plasma
[19] = test system: Human immunodeficiency virus 1; assay: Antiviral activity against HIV1 NL4-3 infected in SCID mouse assessed as viral p24 antigen level in spleen at 10 mg/kg, po administered as single dose after 7 days; type: functional
[20] = biological target: T1, C-X-C chemokine receptor type 4; assay: Inhibition of Mab 12G5 binding to wild type CXCR4 expressed in HEK293 cells; type: cell-based
[21] = test system: C-X-C chemokine receptor type 4 (Homo sapiens), P61073 [V99A]; assay: (§1) Inhibition of Mab 12G5 binding to CXCR4 V99A mutant expressed in HEK293 cells; type: cell-based
Sequence of C-X-C chemokine receptor type 4 (Homo sapiens), P61073 [V99A] (P61073 whole entry V99A): as the sequence (P61073 whole entry) above, with V99A counted along it

[22] = biological target: C-X-C chemokine receptor type 4 (Homo sapiens, UniProt P61073, V99A); assay: as §1; type: cell-based
Sequence of C-X-C chemokine receptor type 4 (Homo sapiens, UniProt P61073, V99A) (P61073 whole entry V99A): as the sequence (P61073 whole entry) above, with V99A counted along it

[23] = test system: C-X-C chemokine receptor type 4 (Homo sapiens), P61073 [V112A]; assay: (§2) Inhibition of Mab 12G5 binding to CXCR4 V112A mutant expressed in HEK293 cells; type: cell-based
Sequence of C-X-C chemokine receptor type 4 (Homo sapiens), P61073 [V112A] (P61073 whole entry V112A): as the sequence (P61073 whole entry) above, with V112A counted along it

[24] = biological target: C-X-C chemokine receptor type 4 (Homo sapiens, UniProt P61073, V112A); assay: as §2; type: cell-based
Sequence of C-X-C chemokine receptor type 4 (Homo sapiens, UniProt P61073, V112A) (P61073 whole entry V112A): as the sequence (P61073 whole entry) above, with V112A counted along it

[25] = test system: C-X-C chemokine receptor type 4 (Homo sapiens), P61073 [D181A]; assay: (§3) Inhibition of Mab 12G5 binding to CXCR4 D181A mutant expressed in HEK293 cells; type: cell-based
Sequence of C-X-C chemokine receptor type 4 (Homo sapiens), P61073 [D181A] (P61073 whole entry D181A): as the sequence (P61073 whole entry) above, with D181A counted along it

[26] = biological target: C-X-C chemokine receptor type 4 (Homo sapiens, UniProt P61073, D181A); assay: as §3; type: cell-based
Sequence of C-X-C chemokine receptor type 4 (Homo sapiens, UniProt P61073, D181A) (P61073 whole entry D181A): as the sequence (P61073 whole entry) above, with D181A counted along it

[27] = test system: C-X-C chemokine receptor type 4 (Homo sapiens), P61073 [H203A]; assay: (§4) Inhibition of Mab 12G5 binding to CXCR4 H203A mutant expressed in HEK293 cells; type: cell-based
Sequence of C-X-C chemokine receptor type 4 (Homo sapiens), P61073 [H203A] (P61073 whole entry H203A): as the sequence (P61073 whole entry) above, with H203A counted along it

[28] = biological target: C-X-C chemokine receptor type 4 (Homo sapiens, UniProt P61073, H203A); assay: as §4; type: cell-based
Sequence of C-X-C chemokine receptor type 4 (Homo sapiens, UniProt P61073, H203A) (P61073 whole entry H203A): as the sequence (P61073 whole entry) above, with H203A counted along it

[29] = test system: C-X-C chemokine receptor type 4 (Homo sapiens), P61073 [E275A]; assay: (§5) Inhibition of Mab 12G5 binding to CXCR4 E275A mutant expressed in HEK293 cells; type: cell-based
Sequence of C-X-C chemokine receptor type 4 (Homo sapiens), P61073 [E275A] (P61073 whole entry E275A): as the sequence (P61073 whole entry) above, with E275A counted along it

[30] = biological target: C-X-C chemokine receptor type 4 (Homo sapiens, UniProt P61073, E275A); assay: as §5; type: cell-based
Sequence of C-X-C chemokine receptor type 4 (Homo sapiens, UniProt P61073, E275A) (P61073 whole entry E275A): as the sequence (P61073 whole entry) above, with E275A counted along it

[31] = test system: C-X-C chemokine receptor type 4 (Homo sapiens), P61073 [V280A]; assay: (§6) Inhibition of Mab 12G5 binding to CXCR4 V280A mutant expressed in HEK293 cells; type: cell-based
Sequence of C-X-C chemokine receptor type 4 (Homo sapiens), P61073 [V280A] (P61073 whole entry V280A): as the sequence (P61073 whole entry) above, with V280A counted along it

[32] = biological target: C-X-C chemokine receptor type 4 (Homo sapiens, UniProt P61073, V280A); assay: as §6; type: cell-based
Sequence of C-X-C chemokine receptor type 4 (Homo sapiens, UniProt P61073, V280A) (P61073 whole entry V280A): as the sequence (P61073 whole entry) above, with V280A counted along it

[33] = test system: C-X-C chemokine receptor type 4 (Homo sapiens), P61073 [I284A]; assay: Inhibition of Mab 12G5 binding to CXCR4 I284A mutant expressed in HEK293 cells; type: cell-based
Sequence of C-X-C chemokine receptor type 4 (Homo sapiens), P61073 [I284A] (P61073 whole entry I284A): as the sequence (P61073 whole entry) above, with I284A counted along it

[34] = biological target: C-X-C chemokine receptor type 4 (Homo sapiens, UniProt P61073, E277A)
Sequence of C-X-C chemokine receptor type 4 (Homo sapiens, UniProt P61073, E277A) (P61073 whole entry E277A): as the sequence (P61073 whole entry) above, with E277A counted along it

[35] = biological target: C-X-C chemokine receptor type 4 (Homo sapiens, UniProt P61073, W283A)
Sequence of C-X-C chemokine receptor type 4 (Homo sapiens, UniProt P61073, W283A) (P61073 whole entry W283A): as the sequence (P61073 whole entry) above, with W283A counted along it

[36] = test system: C-X-C chemokine receptor type 4 (Homo sapiens), P61073 [D171A]; conditions: HEK293
Sequence of C-X-C chemokine receptor type 4 (Homo sapiens), P61073 [D171A] (P61073 whole entry D171A): as the sequence (P61073 whole entry) above, with D171A counted along it

[37] = test system: C-X-C chemokine receptor type 4 (Homo sapiens), P61073 [W283A]; conditions: HEK293
Sequence of C-X-C chemokine receptor type 4 (Homo sapiens), P61073 [W283A] (P61073 whole entry W283A): as the sequence (P61073 whole entry) above, with W283A counted along it

[38] = test system: C-X-C chemokine receptor type 4 (Homo sapiens), P61073 [E288A,L290A]; conditions: HEK293
Sequence of C-X-C chemokine receptor type 4 (Homo sapiens), P61073 [E288A,L290A] (P61073 whole entry E288A/L290A): as the sequence (P61073 whole entry) above, with E288A, L290A counted along it

Q: Which inhibition [1] does the source give for `CCCN(CCC)CCCCN(C)Cc1ccc(CN(Cc2ncc[nH]2)Cc2nccn2C)cc1.O=C(O)C(O)C(O)C(=O)O` here?
A: Its inhibition is “inactive”.

Q: And the EC50 [2]?
A: The EC50 was 0.38 nM.

Q: And the EC50 [3]?
A: Its EC50 is > 200 nM.

Q: What about the EC50 [4] of the same molecule?
A: Its EC50 is 1.4 nM.

Q: And the EC50 [5]?
A: Its EC50 is 1.3 nM.

Q: What about the IC50 [6] of the same molecule?
A: Its IC50 is 0.6 nM.

Q: And the IC50 [7]?
A: Its IC50 is 0.6 nM.

Q: And the IC50 [8]?
A: Its IC50 is 0.8 nM.

Q: And the IC50 [9]?
A: Its IC50 is 0.4 nM.

Q: And the Activity [10]?
A: Its Activity is “inactive”.

Q: And the Activity [11]?
A: Its Activity is “inactive”.

Q: What about the Activity [12] of the same molecule?
A: Its Activity is “inactive”.

Q: And the inhibition [13]?
A: The inhibition was “Dose-dependent effect”.

Q: And the inhibition [14]?
A: Its inhibition is “Dose-dependent effect”.

Q: And the inhibition [15]?
A: Its inhibition is “Active”.

Q: And the half-life [16]?
A: The half-life was 99 h.

Q: And the Vd [17]?
A: Its Vd is 374 L/kg.

Q: And the AUC(0-t) at 336 h [18]?
A: Its AUC(0-t) at 336 h is 325 ng·h/mL.

Q: What about the Activity [19] of the same molecule?
A: The Activity was <5 pg/mL.

Q: And the IC50 [20]?
A: The IC50 was 2.8 nM.

Q: What about the IC90 [20] of the same molecule?
A: Its IC90 is 8.2 nM.

Q: What about the IC90 [21] of the same molecule?
A: The IC90 was 7.4 nM.

Q: What about the IC50 [22] of the same molecule?
A: The IC50 was 1.5 nM.

Q: And the IC90 [23]?
A: Its IC90 is > 10 nM.

Q: What about the IC50 [24] of the same molecule?
A: Its IC50 is 2.2 nM.

Q: And the IC90 [25]?
A: The IC90 was 5.1 nM.

Q: What about the IC50 [26] of the same molecule?
A: The IC50 was 0.5 nM.

Q: What about the IC90 [27] of the same molecule?
A: Its IC90 is 5.3 nM.

Q: What about the IC50 [28] of the same molecule?
A: Its IC50 is 0.5 nM.

Q: And the IC90 [29]?
A: The IC90 was 6.4 nM.

Q: What about the IC50 [30] of the same molecule?
A: Its IC50 is 1 nM.

Q: And the IC90 [31]?
A: Its IC90 is 6.1 nM.

Q: And the IC50 [32]?
A: The IC50 was 1 nM.

Q: And the IC90 [33]?
A: The IC90 was 6.8 nM.

Q: And the IC50 [34]?
A: Its IC50 is 3.1 nM.

Q: What about the IC50 [35] of the same molecule?
A: The IC50 was 1.3 nM.

Q: And the IC90 [36]?
A: The IC90 was > 10 nM.

Q: And the IC90 [37]?
A: The IC90 was 6.9 nM.

Q: And the IC90 [38]?
A: The IC90 was 7.7 nM.
